Among the data in ChEMBL document CHEMBL4819007, “Does targeting Arg98 of FimH lead to high affinity antagonists?” (Eur J Med Chem, 2021) are Kd values, retold here.

The target of assay [1] is Type 1 fimbrin D-mannose specific adhesin (Escherichia coli K-12, UniProt P08191). Kind of assay: Antagonist activity at recombinant 6His-tagged thrombin cleavage site of FimH Lectin domain expressed in Escherichia coli HM125 assessed as dissociation constant incubated for 24 hrs in presence of FITC-labeled tracer by competitive fluorescence polarization assay. (In general: In fluorescence polarisation assays a small probe gives low polarisation when free and higher when bound to something large.)
Chain of Type 1 fimbrin D-mannose specific adhesin (P08191 whole entry, the tested form may be a part): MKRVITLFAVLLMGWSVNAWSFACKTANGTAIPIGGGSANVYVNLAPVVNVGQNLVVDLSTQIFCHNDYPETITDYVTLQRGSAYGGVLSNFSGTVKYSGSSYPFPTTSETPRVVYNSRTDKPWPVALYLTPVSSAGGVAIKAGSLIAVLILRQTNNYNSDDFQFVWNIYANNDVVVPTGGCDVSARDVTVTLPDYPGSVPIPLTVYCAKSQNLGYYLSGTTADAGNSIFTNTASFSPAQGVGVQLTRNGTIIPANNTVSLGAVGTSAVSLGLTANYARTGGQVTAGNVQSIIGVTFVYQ

A short description of assay [2]: Antagonist activity at recombinant 6His-tagged thrombin cleavage site of FimH Lectin domain R98A mutant expressed in Escherichia coli HM125 assessed as dissociation constant measured after 24 hrs by fluorescence polarization assay.

pKd: −log10 of the molar value.

Turning to `CCCCCCCO[C@H]1O[C@H](CO)[C@@H](O)[C@H](O)[C@@H]1O`, the negative-log Kd (pKd) – broadly, the negative decadic logarithm of the Kd, by convention in mol/L – is 7.43 in assay [1] and 7.45 in assay [2]. As for `OC[C@H]1O[C@H](n2cc(-c3ccccc3)nn2)[C@@H](O)[C@@H](O)[C@@H]1O`, the negative logarithm of the Kd (pKd) is 6.47 in assay [1] and 6.53 in assay [2].

As for `COC(=O)COc1ccc(-c2cn([C@H]3O[C@H](CO)[C@@H](O)[C@H](O)[C@@H]3O)nn2)cc1`, the values for the pKd in assay [1] and in assay [2] were 7.18 and 8.14, respectively.

Regarding `COC(=O)COc1cccc(-c2cn([C@H]3O[C@H](CO)[C@@H](O)[C@H](O)[C@@H]3O)nn2)c1`, the pKd in assay [1] was 6.76; in assay [2], 7.65. Regarding `CCOC(=O)CCCCCCOc1cccc(-c2cn([C@H]3O[C@H](CO)[C@@H](O)[C@H](O)[C@@H]3O)nn2)c1`, the results for the pKd in assay [1] and in assay [2] were 7.16 and 7.87, respectively. In the case of `O=C(O)COc1ccc(-c2cn([C@H]3O[C@H](CO)[C@@H](O)[C@H](O)[C@@H]3O)nn2)cc1`, the figures for the negative-log Kd (pKd) in assay [1] and in assay [2] were 6.77 and 7.84, respectively.

On to `CCOC(=O)CCCCCOc1cccc(-c2cn([C@H]3O[C@H](CO)[C@@H](O)[C@H](O)[C@@H]3O)nn2)c1`, for which the pKd in assay [1] was 7.31; in assay [2], 7.94. Consider `CCOC(=O)CCCCCCCOc1ccc(-c2cn([C@H]3O[C@H](CO)[C@@H](O)[C@H](O)[C@@H]3O)nn2)cc1`, for which the pKd in assay [1] is 7.37; in assay [2] it was 8.06. As to `CCOC(=O)CCCCOc1ccc(-c2cn([C@H]3O[C@H](CO)[C@@H](O)[C@H](O)[C@@H]3O)nn2)cc1`, the results for the pKd in assay [1] and in assay [2] were 7.30 and 8.00, respectively. Consider `O=C(O)CCCCCCOc1ccc(-c2cn([C@H]3O[C@H](CO)[C@@H](O)[C@H](O)[C@@H]3O)nn2)cc1`, for which the negative-log Kd (pKd) in assay [1] was 7.42; in assay [2], 8.12. Take `O=C(O)COc1cccc(-c2cn([C@H]3O[C@H](CO)[C@@H](O)[C@H](O)[C@@H]3O)nn2)c1`: the negative logarithm of the Kd (pKd) is 6.45 in assay [1] and 7.54 in assay [2]. For `O=C(O)CCCOc1cccc(-c2cn([C@H]3O[C@H](CO)[C@@H](O)[C@H](O)[C@@H]3O)nn2)c1`, in that order: 6.75 and 7.68. As for `CCOC(=O)CCCCCCOc1ccc(-c2cn([C@H]3O[C@H](CO)[C@@H](O)[C@H](O)[C@@H]3O)nn2)cc1`, the pKd is 8.12 in assay [1] and 8.89 in assay [2]. On to `O=C(O)CCCOc1ccc(-c2cn([C@H]3O[C@H](CO)[C@@H](O)[C@H](O)[C@@H]3O)nn2)cc1`, for which the pKd in assay [1] was 7.20; in assay [2], 8.02. Regarding `O=C(O)CCCCCOc1cccc(-c2cn([C@H]3O[C@H](CO)[C@@H](O)[C@H](O)[C@@H]3O)nn2)c1`, the pKd is 7.25 in assay [1] and 7.76 in assay [2]. On to `O=C(O)CCCCCOc1ccc(-c2cn([C@H]3O[C@H](CO)[C@@H](O)[C@H](O)[C@@H]3O)nn2)cc1`, for which the results for the pKd in assay [1] and in assay [2] were 7.44 and 8.12, respectively.

Turning to `O=C(O)CCCCOc1ccc(-c2cn([C@H]3O[C@H](CO)[C@@H](O)[C@H](O)[C@@H]3O)nn2)cc1`, the pKd in assay [1] was 7.31; in assay [2], 7.95. With `CCOC(=O)CCCOc1ccc(-c2cn([C@H]3O[C@H](CO)[C@@H](O)[C@H](O)[C@@H]3O)nn2)cc1`, the figures for the negative-log Kd (pKd) in assay [1] and in assay [2] were 7.22 and 8.09, respectively. `CCOC(=O)CCCCCOc1ccc(-c2cn([C@H]3O[C@H](CO)[C@@H](O)[C@H](O)[C@@H]3O)nn2)cc1`: the pKd is 7.49 in assay [1] and 8.18 in assay [2]. In the case of `O=C(O)CCCCCCCOc1ccc(-c2cn([C@H]3O[C@H](CO)[C@@H](O)[C@H](O)[C@@H]3O)nn2)cc1`, the negative logarithm of the Kd (pKd) was 7.35 in assay [1] and 8.00 in assay [2]. In the case of `CCOC(=O)CCCCCCCOc1cccc(-c2cn([C@H]3O[C@H](CO)[C@@H](O)[C@H](O)[C@@H]3O)nn2)c1`, the pKd in assay [1] is 6.97; in assay [2], 7.60. Taken in the same sequence, the figures for `COC(=O)CCCOc1cccc(-c2cn([C@H]3O[C@H](CO)[C@@H](O)[C@H](O)[C@@H]3O)nn2)c1` were 6.84 and 7.80. Take `CCOC(=O)CCCCOc1cccc(-c2cn([C@H]3O[C@H](CO)[C@@H](O)[C@H](O)[C@@H]3O)nn2)c1`: the results for the negative logarithm of the Kd (pKd) in assay [1] and in assay [2] were 7.19 and 7.79, respectively. `O=C(O)CCCCCCCOc1cccc(-c2cn([C@H]3O[C@H](CO)[C@@H](O)[C@H](O)[C@@H]3O)nn2)c1`: in assay [1], the negative logarithm of the Kd (pKd) is less than 6.00. `O=C(O)CCCCCCOc1cccc(-c2cn([C@H]3O[C@H](CO)[C@@H](O)[C@H](O)[C@@H]3O)nn2)c1`: the pKd was 6.27 in assay [1] and 7.20 in assay [2].

Take `O=C(O)CCCCOc1cccc(-c2cn([C@H]3O[C@H](CO)[C@@H](O)[C@H](O)[C@@H]3O)nn2)c1`: the negative-log Kd (pKd) in assay [1] was 7.11; in assay [2], 7.79.
